Assay results reported in patent US20250263437A1, “POLYPEPTIDE FOR REPAIRING SKIN WOUND OR MUCOSAL INJURY, AND APPLICATION THEREOF” (Sichuan Gooddoctor Panxi Pharmaceutical Co., Ltd., priority 2021, published 2025).
Where no end group is shown, it is not given here.

Each substance was assayed against FGFR1 (Homo sapiens, UniProt P11362) (assay: FGFR receptor binding assay: ultrafiltration/mass spectrometry affinity screening to FGFR1 protein target). Conditions: ratio of lower-layer to upper-layer compound MS signal intensity; the greater the ratio, the stronger the affinity.
Experimental: The affinity of the polypeptide compound prepared by the present invention to FGFR1 was tested by using a control FGFR1 allosteric inhibitor (product number SSR128129E from Sigma) as a positive compound control.
Screening for the affinity to FGFR1 was as follows: FGFR1 solutions with an appropriate concentration were taken, the positive compound SSR128129E (Sigma) at an appropriate concentration and sample solutions of the inventive polypeptide compounds, as freeze-dried powders, dissolved in protein buffers were then respectively added. After incubation at room temperature for 50 min, ultrafiltration and screening were carried out to obtain various treated solutions. An appropriate volume of acetonitrile was added to each treated solution to precipitate a protein, the solution was then centrifuged, and the supernatant was taken and analyzed by mass spectrometry.
Affinity screening conditions: One-dimensional liquid-phase conditions were: chromatographic column; PolyLC chromatographic column, mobile phase A: KH2PO4, NaCl, pH 7.5, mobile phase B: acetonitrile, column temperature: 8° C., flow rate: 1 mL/min, and injection volume: appropriate; and two-dimensional liquid-phase conditions were: chromatographic column: BONUS RRHD, mobile phase A: 0.1% formic acid aqueous solution, mobile phase B: 0.1% formic acid in acetonitrile, column temperature: 60° C., flow rate: 0.3 mL/min, and injection volume: 40 uL. Gradient elution was used, i.e., 98% A (0-1 min), 98-10% A (1-6 min), 10% A (6-7.5 min), 10-98% A (7.5-8 min), and 98% A (8-9.5 min). Mass spectrometry conditions: Agilent 6530 Q-Tof, ESI ion source, voltage 3.5 KV, mass-to-charge ratio scanning range m/z=200-3000, acquisition mode: positive ion scanning, ion source temperature: 350° C., solvent removal temperature: 300° C., and nitrogen flow rate: 8 L/min.

Sequence of FGFR1 (P11362 22-822, species assumed): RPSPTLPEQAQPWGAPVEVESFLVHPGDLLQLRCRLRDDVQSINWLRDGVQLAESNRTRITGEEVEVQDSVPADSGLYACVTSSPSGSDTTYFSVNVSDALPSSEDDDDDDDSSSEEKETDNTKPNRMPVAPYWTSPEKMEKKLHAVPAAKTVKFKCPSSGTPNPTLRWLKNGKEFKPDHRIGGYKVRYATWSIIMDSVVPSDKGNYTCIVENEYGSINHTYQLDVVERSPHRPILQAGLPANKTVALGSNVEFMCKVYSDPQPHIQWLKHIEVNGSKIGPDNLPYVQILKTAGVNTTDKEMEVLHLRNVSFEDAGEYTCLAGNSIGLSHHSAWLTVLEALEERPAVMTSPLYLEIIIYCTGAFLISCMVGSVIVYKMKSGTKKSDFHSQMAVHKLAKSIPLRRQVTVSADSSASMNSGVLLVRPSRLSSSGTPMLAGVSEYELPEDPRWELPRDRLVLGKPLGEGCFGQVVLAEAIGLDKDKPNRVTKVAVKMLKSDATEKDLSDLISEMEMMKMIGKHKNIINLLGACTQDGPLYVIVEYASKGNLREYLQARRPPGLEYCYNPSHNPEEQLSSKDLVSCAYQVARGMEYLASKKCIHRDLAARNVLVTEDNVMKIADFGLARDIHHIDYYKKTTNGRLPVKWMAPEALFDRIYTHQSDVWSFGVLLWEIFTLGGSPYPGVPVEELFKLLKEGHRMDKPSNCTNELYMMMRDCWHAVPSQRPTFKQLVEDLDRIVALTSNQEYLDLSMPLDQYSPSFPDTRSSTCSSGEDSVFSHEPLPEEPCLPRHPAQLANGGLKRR

Row | Substance | Cb/Ct range
1 | AAVLEKLE [Compound 69] | 1.0-3
2 | FDALKQQFQAFQLE [Compound 62] | 1.0-3

The substances below were run on ethanol-induced gastric ulcer model in mice (assay: Anti-ulcer effect on ethanol-induced gastric ulcer model in mice). Conditions: single administration; ulcer inhibition rate of test compound / ulcer inhibition rate of Compound 1.
Type: in vivo
Experimental: Experimental animals: Six-week old C57BL/6JGPt male mice, weighing about 20 g/mouse, were selected, with 10 mice in each group, from GemPharmatech (Chengdu) Co., Ltd., animal license number: SCXK (Chuan) 2020-034. After the experimental animals were divided into groups, they were dosed according to Table 5 one day before the experiment. Among the groups, the model group was given 200 μl of pure water, and the other dose groups were given 200 μl of drug solution. After that, all the animals were fasted for 24 h with free access to water. The next day, 1 h after administration, the mice in each group were given 9 μl/g of absolute ethanol by oral gavage for modeling. After 1 h, the animals were sacrificed by cervical dislocation, the gastric cardia was ligated, the pylorus was occluded, and the whole stomach was removed. 1 mL of 1% formaldehyde solution was injected into the gastric lumen via the glandular stomach, the cardia was ligated, and the stomach was taken out and immediately immersed in 1% formaldehyde solution. After soaking for 30 min, the stomach tissue was taken out and cut open along the greater curvature. The content of the stomach was rinsed off with normal saline, the injury of the gastric mucosa in the mice were observed and measured after being laid flat, and the ulcer index and ulcer inhibition rate were calculated; panoramic photos of the stomach were taken; and finally, the gastric tissue sample was immersed in formalin and fixed. Calculation method for ulcer index: If the length of cord-like injury was greater than 1 mm, the length thereof was measured, with 1 point per millimeter; if the width thereof was greater than 1 mm, the score thereof was doubled according to the number of millimeters of the width; and if the length was less than 1 mm, a score of 0.5 was given, and the scores were added up to obtain the ulcer index of the animal. Method of data statistics: the ulcer index was expressed as mean±standard deviation; the ulcer inhibition rate was calculated by using the median value and mean value of the ulcer index in each dosage group and simulation group; and the data were statistically analyzed by means of Excel, and the difference data of the gastric ulcer index were statistically analyzed by means of independent sample T test.

Row | Substance | Anti-ulcer activity (mean relative ulcer inhibition rate)
3 | AAVLEKLE [Compound 69] | 1.25
4 | AEPVPLEAEAKGKAE [Compound 54] | 0.59
5 | AMQASLEAEAKGKAE [Compound 29] | 1.00
6 | EAEAAGKAE [Compound 61] | 0.52
7 | EAEAKGK [Compound 46] | 0.47
8 | EAEAKGKAE [Compound 7] | 1.69
9 | FDALKQQFQAFQLE [Compound 62] | 0.89
10 | Gln-Ala-Ser-Leu (QASL; printed: Gln-Ala-Ser-Leu) [Compound 9] | 0.59
11 | Glu-Ala-Glu-Ala (EAEA; printed: Glu-Ala-Glu-Ala) [Compound 45] | 0.50
12 | Gly-Lys-Ala-Glu (GKAE; printed: Gly-Lys-Ala-Glu) [Compound 10] | 0.56
13 | PAAEPVPLEAEAKGKAE [Compound 55] | 0.20
14 | QASLEAEAKGK [Compound 4] | 0.82
15 | QASLEAEAKGKAE [Compound 2] | 0.45
16 | RKDVYEAEAKGKAE [Compound 59] | 0.48
17 | SAQASLEAEAKGKAE [Compound 16] | 0.98
18 | SIQASLEAEAKGKAE [Compound 22] | 0.81
19 | SLQASLEAEAKGKAE [Compound 17] | 0.74
20 | SMAASLEAEAKGKAE [Compound 21] | 0.87
21 | SMEASLEAEAKGKAE [Compound 37] | 0.22
22 | SMQAALEAEAKGKAE [Compound 28] | 0.67
23 | SMQASAEAEAKGKAE [Compound 15] | 0.72

Row | Substance | Anti-ulcer activity (mean relative ulcer inhibition rate)
24 | SMQASL [Compound 8] | 0.89
25 | SMQASLAAEAKGKAE [Compound 19] | 0.64
26 | SMQASLDAEAKGKAE [Compound 38] | 1.38
27 | SMQASLEAAAKGKAE [Compound 20] | 0.56
28 | SMQASLEADAKGKAE [Compound 39] | 0.83
29 | SMQASLEAEAAGKAE [Compound 18] | 0.91
30 | SMQASLEAEAHGKAE [Compound 32] | 0.52
31 | SMQASLEAEAK [Compound 5] | 0.84
32 | SMQASLEAEAKAKAE [Compound 56] | 0.91
33 | SMQASLEAEAKGAAE [Compound 26] | 0.56
34 | SMQASLEAEAKGHAE [Compound 31] | 0.50
35 | SMQASLEAEAKGK [Compound 3] | 0.33
36 | SMQASLEAEAKGKAA [Compound 27] | 0.51
37 | SMQASLEAEAKGKAD [Compound 23] | 0.70
38 | SMQASLEAEAKGKAEA [Compound 52] | 0.67
39 | SMQASLEAEAKGKAEL [Compound 51] | 0.62
40 | SMQASLEAEAKGKAKQD [Compound 53] | 0.44
41 | SMQASLEAEAKGKAKQE [Compound 58] | 0.52
42 | SMQASLEAEAKGKAN [Compound 24] | 0.62
43 | SMQASLEAEAKGKAQ [Compound 13] | 1.02
44 | SMQASLEAEAKGKAQD [Compound 49] | 0.48

Row | Substance | Anti-ulcer activity (mean relative ulcer inhibition rate)
45 | SMQASLEAEAKGKAQE [Compound 50] | 0.09
46 | SMQASLEAEAKGKSE [Compound 60] | 1.03
47 | SMQASLEAEAKGRAE [Compound 25] | 0.36
48 | SMQASLEAEAKPKAE [Compound 57] | 1.12
49 | SMQASLEAEARGKAE [Compound 30] | 0.33
50 | SMQASLEAESKGKAE [Compound 44] | 0.16
51 | SMQASLEALAKGKAE [Compound 34] | 0.91
52 | SMQASLEAQAKGKAE [Compound 36] | 0.07
53 | SMQASLESEAKGKAE [Compound 43] | 0.30
54 | SMQASLLAEAKGKAE [Compound 33] | 0.31
55 | SMQASLQAEAKGKAE [Compound 35] | 0.57
56 | SMQASLQAQAKGKAE [Compound 14] | 0.49
57 | SMQASVEAEAKGKAE [Compound 42] | 0.84
58 | SMQATLEAEAKGKAE [Compound 41] | 0.92
59 | STQASLEAEAKGKAE [Compound 48] | 1.19
60 | SVQASLEAEAKGKAE [Compound 12] | 0.68
61 | Ser-Met (O)-Gln-Ala-Ser-Leu-Glu-Ala-Glu-Ala-Lys-Gly-Lys-Ala-Glu [Compound 11] | 1.08
62 | TASTLEAEAKGKAE [Compound 47] | 0.61
63 | TMQASLEAEAKGKAE [Compound 40] | 0.18
64 | Teprenone [reference compound] | 0.5

These substances were tested on HaCaT cells (assay: Proliferation of HaCaT cells (CCK8)). Conditions: 0.2-0.8 μg/mL; 24 h, 48 h and 72 h; 1% serum.
Type: cell-based, human
Experimental: Experimental method: Immortalized human keratinocytes (HaCaT cells) was adjusted to a concentration of 1.0×10^5 to 5.0×10^5/mL for passaging, and they were cultured at 37° C. and 5% CO2 for 24-36 h for biological activity detection. The cells were digested with 0.25% trypsin for 5 min, 1640 whole blood culture medium, the volume of which was not less than 1 time of the volume of the trypsin, was added to stop digestion, a cell suspension was collected, centrifuged at 1000 RPM for 3 min, the supernatant was discarded, 2 mL of 1640 whole blood culture medium was added to suspend the cells, 20 μL of the cell suspension was taken and stained with AOPI, the concentration of cells in the suspension was then detected by a cell counter, the suspension was prepared to a concentration of 5×10^4/mL with 1640 culture medium containing serum at a concentration of 10% and inoculated into a 96-well cell culture plate, with 100 μL per well, i.e., 5000 cells/well, and the plate was cultured at 37° C. and 5% CO2 overnight.
After 24 h, the original culture medium was discarded, and 100 μL of polypeptide compound solutions with different concentrations prepared with 1640 culture medium containing serum at a concentration of 1% were added, such that the final concentrations of the polypeptide compounds to be tested were 0.2, 0.4 and 0.8 ug/mL, respectively. In addition, an EGF control group was prepared by adding 100 μL of a recombinant human epidermal growth factor (EGF) solution prepared with 1640 culture medium containing serum at a concentration of 1%, with the final concentration being 100 ng/ml. In the model control group, an equal volume of 1640 culture medium containing serum at a concentration of 1% was added. After culturing at 37° C. and 5% CO2 for 24 h, 48 h and 72 h, the proliferation of the HaCaT cell line was detected by means of CCK8 kit.

Row | Substance | effect on proliferation of HaCaT cells
65 | AAVLEKLE [Compound 69] | proliferation-promoting effect
66 | SMQASLEAEAKGKAKQD [Compound 53] | proliferation-promoting effect
67 | SMQASLEAEAKPKAE [Compound 57] | proliferation-promoting effect
